# Data taken from ChEMBL document CHEMBL1133993, “Chemical synthesis of UDP-beta-L-arabinofuranose and its turnover to UDP-beta-L-arabinopyranose by UDP-galactopyranose mutase” (Bioorg Med Chem Lett, 2001).
# System: Escherichia coli
# Experiment: Kinetic constant using the compound as substrate was determined against Escherichia coli UDP-galactopyranose mutase
Km [µM],k cat [s⁻¹],Compound
600,12,O=c1ccn([C@@H]2O[C@H](COP(=O)(O)OP(=O)(O)O[C@H]3O[C@@H](CO)[C@H](O)[C@H]3O)[C@@H](O)[C@H]2O)c(=O)[nH]1
22,27,O=c1ccn(C2O[C@H](COP(=O)(O)OP(=O)(O)OC3O[C@H]([C@H](O)CO)[C@H](O)[C@H]3O)[C@@H](O)[C@H]2O)c(=O)[nH]1 (some centres undefined)
